Assay results reported in patent US20140106387A1, “METHOD FOR CONTROLLING NAD(P)/NAD(P)H RATIO BY OXIDOREDUCTASE” (MD BIOALPHA CO., LTD., priority 2006, published 2014).

Experiments:
[1] = AMP/ATP, NAD+/NADH and NADP+/NADPH ratios in liver after intravenous administration; format: in vivo, mouse
Procedure: (§1) Acid extraction was used for analysis of an AOPN concentration in the cells and liver tissues. 400 μl of 6% HClO4 was added to the cells cultured in a 100 mm dish, whereas a two-fold volume of 6% HClO4 was added to the liver tissues which were then immediately homogenized. Each mixture was centrifuged at 14,000 g and 4° C. for 10 min, and the resulting supernatants were neutralized by addition of 1 M borate buffer (pH 11) containing 4 mM EDTA in an amount of 75%. Samples were aliquoted and stored at a temperature of −80° C.
Analysis of an RPN concentration in liver tissues was carried out using alkali extraction. An equal volume of ice-cold 0.5 M KOH was added to the liver tissues which were then immediately homogenized. Thereafter, a two-fold volume of ice-cold distilled water was added and mixed with the liver tissues for 2 min, and the mixture was centrifuged using an Amicon ultrafiltration membrane (MILLIPORE) at 14,000 g and 4° C. for 40 min. The thus-obtained filtrate was neutralized by addition of 1 M KH2PO4 (pH 6.5) in an amount of 10%. Samples were aliquoted and stored at a temperature of −70° C. Concentration determination was made within 72 hours.
A mobile phase was 100 mM ammonium acetate:MeOH (98:2, v/v), and preparations were filtered through a 0.22-μm Millipore filter. A flow rate was set to 0.8 mL/min and detection was made at 254 nm. Separation was carried out using a ZORBAX Bonus-RP C18 column (3.5 μm, 4.6×150 mm I.D., […]). The samples were maintained at 4° C. in a thermostatted autosampler until they were loaded onto the column.
In order to assay ATP, ADP, AMP, NAD and NADP levels, 450 μl of 5 mM ammonium acetate was added to 50 μl of a liver sample extracted with perchloric acid (HClO4) which was then diluted ten times. Diluted samples were vortexed and mixed for 1 min, and the mixture was filtered through a 0.2 μm nylon syringe filter (Whatman, Brentford, UK). Then, 5 μl of each aliquot was injected into a HPLC system. Each standard solution (50 μl) for these analytes was added to 50 μl of an extraction solution containing 2-chloroadenosine (internal standard) and 400 μl of 5 mM ammonium acetate, and mixed and filtered in the same manner as in the above samples. For analysis of NADH and NADPH, each 100 μl of liver samples extracted with a potassium hydroxide (KOH) solution was diluted twice with an equal amount of a 5 mM ammonium acetate (KOH solution for standards). HPLC system consists of an Agilent 1100 series vacuum degasser, a binary pump, an autosampler, a thermostatted column compartment, and a DAD detector (Agilent Technologies, Palo Alto, Calif.). Adenine and nucleotide analogues were separated by Waters XTena MS C18 2.1×150 mm, 3.5 μm column (Waters, Milford, Mass., USA) chromatography using a gradient method. A mobile phase for adenine and nucleotide analogues was 5 mM ammonium acetate (A) and methanol (B). NAD^+-related compounds were separated by linear gradient elution of initial 98% (A) to final 70% (B) at a time point of 8 min. The mobile phase was developed at 70% (B) for 7 min. Finally, the mobile phase was returned to 98% (A) at a point of 16 min, and reequilibrated to 98% (A) for 12 min. A flow rate was set to 0.2 mL/min throughout the entire period of time. An injection volume was 5 μl. Electrospray-ionization mass spectrometry (ESI-MS) was carried out in a positive ion mode using MDS Sciex API 4000 Triple Quadrupole Mass Spectrometer (Applied Biosystems, Ontario, Calif.).
5 mg/kg of pyrano-1,2-naphthoquinone was intravenously administered to a tail vein of DIO mice and changes in an NADH amount and an NAD^+/NADH ratio of liver tissues were examined for 6 hours.

[2] = system: cardiomyocytes; test: mitochondrial membrane potential (TMRE fluorescence) in cardiomyocytes; format: cell-based
Procedure: For determination of the inner mitochondrial membrane potential (ΔΨm), 20 nM of TMRE (tetramethylrhodamine ethyl ester) as a fluorescent indicator was continuously applied to be loaded on cells. In order to monitor mitochondrial Ca^2+, cells on glass coverslips were loaded with 10 μM Rhod-2 AM via cold loading/warm incubation. In order to monitor cytosolic Ca^2+, cells were co-loaded with 10 μM Fluo-4 AM at 37′C for 30 min. The cells were washed twice with a KB solution, and mounted in a perfusion chamber. Fluorescent imaging was taken using a confocal laser scanning microscope (LSM-510 META, Carl Zeiss) at a magnification of ×200 and ×400, in conjunction with appropriate laser lines and a filter set. Image analysis was carried out using LSM-510 META software (Zeiss). Images for TMRE (red fluorescence), Rhod-2 (red fluorescence) and Fluo-4 (green fluorescence) were obtained using an inverted Zeiss 510META laser-scanning confocal microscope equipped with ×63 numerical aperture, 1.4 oil-immersion planapochromat lens. Green fluorescence and red fluorescence were illuminated with light of 488 nm and 543 nm. Incident light was passed through a 545 nm dichroic mirror and observed via a 500 to 530 nm band-pass (green) filter and a 560 nm long-pass (red) barrier filter.
However, such effects were not observed in HEK293 cells. […]

[3] = system: HepG2 cells; test: intracellular ATP, ADP and AMP levels by LC-MS in HepG2; format: cell-based, human; settings: HepG2, 10 μM, 2 hours
Procedure: (§2) Samples were analyzed using an Agilent 1100 series LC/MSD system equipped with G1322A degasser, G1312A binary pump, G1315A photo-diode-array detector, 59987A electrospray interface and 5989B mass spectrometer. ES-MS analysis was performed using an Agilent 5989 electrospray (ES) mass spectrometer (MS) with an Agilent Atmospheric Pressure Ionization (API) interface fitted with a hexapole ion guide. Chromatogram was automatically integrated with the aid of Chemstation software, and concentrations were determined using a standard calibration curve.
as §1
(§3) A mobile phase was 100 mM ammonium acetate:MeOH (98:2, v/v), and preparations were filtered through a 0.22-μm Millipore filter. A flow rate was set to 0.8 mL/min and detection was made at 254 nm. Separation was carried out using a ZORBAX Bonus-RP C18 column (3.5 μm, 4.6×150 mm I.D., Waters, USA). […]

[4] = system: AMPK, ACC; test: AMPK kinase / ACC activity in HepG2 cells; format: cell-based, human
[5] = system: HEK293 cells; test: intracellular ATP, ADP and AMP levels by LC-MS in HEK293; format: cell-based, human; settings: HEK293 cells having no NQO1 activity, 2 hours
Procedure: as §2, §1, §3

[6] = 5 mg/kg intravenous, liver of DIO mice

## CC1(C)CCC2=C(O1)c1ccccc1C(=O)C2=O [βL, 2,2-Dimethyl-3,4-dihydro-2H-benzo[h]chromene-5,6-dione]
[1]; 5 mg/kg intravenous, liver
  numerical value of NADP+: no significant change
  time point of maximum NAD+/NADPH ratio: 120 min
[1]; [6]
  time point of highest AMP/ATP ratio: 30 min
  time point of maximum NAD+ amount and NAD+/NADH ratio: 120 min
  time point of maximum increase of AMP concentration: 30 min
  time point of recovery of AMP concentration to a normal level: 120 min
  time point of recovery of AMP/ATP ratio to the initial state: 360 min
[1]; DIO mice
  changes in the AMP/ATP and NAD+/NADP ratios: significant changes
[1]; intravenous (IV) injection
  AMP/ATP and NAD+/NADH ratios in the liver compared to control group: higher
[2]
  decrease of TMRE fluorescence: about 20%
[3]
  time at which ATP amount was minimum and AMP amount maximum: 30 min
[4]
  ACC activation: decreases ACC activation
[4]; 10 μM, 30 min
  activity of AMPK: increased
[5]
  intracellular ATP level: no significant changes in the intracellular ATP level
